In the NIST ThermoML archive (doi:10.1016/j.jct.2018.07.011):

Experiment: relative permittivity at various frequencies (dimensionless)
Conditions: Reentrant cavity resonator

C=C(F)C(F)(F)F [2,3,3,3-tetrafluoro-1-propene]
Conditions	relative permittivity
248.51 K, 10580 kPa, Liquid, Frequency=120 MHz	11.2191
248.71 K, 8271 kPa, Liquid, Frequency=120 MHz	11.1539
248.95 K, 6475 kPa, Liquid, Frequency=120 MHz	11.0761
249.16 K, 4746 kPa, Liquid, Frequency=120 MHz	11.0131
249.37 K, 3089 kPa, Liquid, Frequency=120 MHz	10.9467
249.67 K, 10580 kPa, Liquid, Frequency=120 MHz	11.1976
249.71 K, 8272 kPa, Liquid, Frequency=120 MHz	11.1217
249.75 K, 6476 kPa, Liquid, Frequency=120 MHz	11.0617
249.76 K, 4750 kPa, Liquid, Frequency=120 MHz	10.9998
249.77 K, 3089 kPa, Liquid, Frequency=120 MHz	10.9379
273.14 K, 10470 kPa, Liquid, Frequency=120 MHz	9.47583
273.41 K, 10970 kPa, Liquid, Frequency=120 MHz	9.48739
273.5 K, 7893 kPa, Liquid, Frequency=120 MHz	9.37498
273.59 K, 8235 kPa, Liquid, Frequency=120 MHz	9.38477
273.69 K, 4628 kPa, Liquid, Frequency=120 MHz	9.24224
273.79 K, 5794 kPa, Liquid, Frequency=120 MHz	9.28399
273.95 K, 1601 kPa, Liquid, Frequency=120 MHz	9.10293
274.32 K, 3368 kPa, Liquid, Frequency=120 MHz	9.17004
275.05 K, 1116 kPa, Liquid, Frequency=120 MHz	9.04939
297.54 K, 7675 kPa, Liquid, Frequency=120 MHz	7.93035
297.56 K, 247.8 kPa, Gas, Frequency=340 MHz	1.03846
297.57 K, 4942 kPa, Liquid, Frequency=120 MHz	7.79441
297.57 K, 10760 kPa, Liquid, Frequency=120 MHz	8.06626
297.58 K, 2537 kPa, Liquid, Frequency=120 MHz	7.65994
297.61 K, 259.6 kPa, Gas, Frequency=340 MHz	1.04022
297.63 K, 225.5 kPa, Gas, Frequency=340 MHz	1.03469
297.67 K, 100.9 kPa, Gas, Frequency=340 MHz	1.01502
321.5 K, 203 kPa, Gas, Frequency=340 MHz	1.02682
321.53 K, 644.4 kPa, Gas, Frequency=340 MHz	1.09027
321.55 K, 817.8 kPa, Gas, Frequency=340 MHz	1.11132
321.63 K, 4262 kPa, Liquid, Frequency=120 MHz	6.51012
321.65 K, 7089 kPa, Liquid, Frequency=120 MHz	6.70204
321.65 K, 10590 kPa, Liquid, Frequency=120 MHz	6.89633
345.73 K, 218.5 kPa, Gas, Frequency=340 MHz	1.02515
345.74 K, 874.9 kPa, Gas, Frequency=340 MHz	1.10115
345.75 K, 693 kPa, Gas, Frequency=340 MHz	1.08291
345.89 K, 4404 kPa, Liquid, Frequency=120 MHz	5.30782
345.93 K, 6822 kPa, Liquid, Frequency=120 MHz	5.57121
346.01 K, 10290 kPa, Liquid, Frequency=120 MHz	5.83949
365.22 K, 908.6 kPa, Gas, Frequency=340 MHz	1.09359
365.25 K, 713.8 kPa, Gas, Frequency=340 MHz	1.07604
365.3 K, 230.9 kPa, Gas, Frequency=340 MHz	1.0241

[Ar] [argon]
Gas, Frequency=340 MHz
Conditions	relative permittivity
272.94 K, 8533 kPa	1.05077
273.04 K, 5986 kPa	1.03462
273.17 K, 3359 kPa	1.01869
297.44 K, 9503 kPa	1.05146
297.45 K, 3675 kPa	1.01893
297.45 K, 6614 kPa	1.03509
321.92 K, 4005 kPa	1.01899
321.93 K, 7248 kPa	1.03523

O=C=O [carbon dioxide]
Conditions	relative permittivity
234.7 K, 5002 kPa, Liquid, Frequency=270 MHz	1.73109
234.76 K, 4012 kPa, Liquid, Frequency=270 MHz	1.729
234.77 K, 2015 kPa, Liquid, Frequency=270 MHz	1.72473
234.78 K, 3015 kPa, Liquid, Frequency=270 MHz	1.72689
235.13 K, 6031 kPa, Liquid, Frequency=270 MHz	1.73287
248.98 K, 4006 kPa, Liquid, Frequency=270 MHz	1.68089
249.12 K, 3018 kPa, Liquid, Frequency=270 MHz	1.67791
249.15 K, 2012 kPa, Liquid, Frequency=270 MHz	1.67486
251.38 K, 6015 kPa, Liquid, Frequency=270 MHz	1.68401
251.72 K, 5017 kPa, Liquid, Frequency=270 MHz	1.6809
252.7 K, 6996 kPa, Liquid, Frequency=270 MHz	1.685
273.6 K, 7004 kPa, Liquid, Frequency=270 MHz	1.59893
273.75 K, 6019 kPa, Liquid, Frequency=270 MHz	1.5936
274.12 K, 5019 kPa, Liquid, Frequency=270 MHz	1.58749
274.66 K, 4024 kPa, Liquid, Frequency=270 MHz	1.58054
297.38 K, 1176 kPa, Gas, Frequency=340 MHz	1.01138
297.57 K, 7002 kPa, Liquid, Frequency=270 MHz	1.45192
297.6 K, 5992 kPa, Gas, Frequency=340 MHz	1.10291
297.61 K, 6991 kPa, Liquid, Frequency=270 MHz	1.45145
297.64 K, 2005 kPa, Gas, Frequency=340 MHz	1.02052
297.7 K, 3002 kPa, Gas, Frequency=340 MHz	1.03319
297.73 K, 3998 kPa, Gas, Frequency=340 MHz	1.0487
297.75 K, 4570 kPa, Gas, Frequency=340 MHz	1.05962

F/C=C/C(F)(F)F [trans-1,3,3,3-tetrafluoropropene]
Conditions	relative permittivity
248.98 K, 2078 kPa, Liquid, Frequency=200 MHz	3.44336
249 K, 4121 kPa, Liquid, Frequency=200 MHz	3.45458
249.02 K, 6251 kPa, Liquid, Frequency=200 MHz	3.46583
249.06 K, 8448 kPa, Liquid, Frequency=200 MHz	3.47696
249.07 K, 10680 kPa, Liquid, Frequency=200 MHz	3.48805
273.01 K, 7894 kPa, Liquid, Frequency=200 MHz	3.19554
273.19 K, 10470 kPa, Liquid, Frequency=200 MHz	3.21071
273.23 K, 4627 kPa, Liquid, Frequency=200 MHz	3.17426
273.36 K, 1598 kPa, Liquid, Frequency=200 MHz	3.15254
273.46 K, 486 kPa, Liquid, Frequency=200 MHz	3.14403
273.66 K, 73.9 kPa, Gas, Frequency=340 MHz	1.00498
274.29 K, 139 kPa, Gas, Frequency=340 MHz	1.00927
297.59 K, 79.6 kPa, Gas, Frequency=340 MHz	1.00458
297.59 K, 240.4 kPa, Gas, Frequency=340 MHz	1.01364
297.6 K, 349.7 kPa, Gas, Frequency=340 MHz	1.02033
297.63 K, 5735 kPa, Liquid, Frequency=200 MHz	2.92689
297.63 K, 10470 kPa, Liquid, Frequency=200 MHz	2.96416
297.64 K, 140.5 kPa, Gas, Frequency=340 MHz	1.00794
297.65 K, 7982 kPa, Liquid, Frequency=200 MHz	2.94513
297.67 K, 1491 kPa, Liquid, Frequency=200 MHz	2.88752
297.67 K, 3490 kPa, Liquid, Frequency=200 MHz	2.90668
321.55 K, 211.2 kPa, Gas, Frequency=340 MHz	1.01063
321.63 K, 210.1 kPa, Gas, Frequency=340 MHz	1.0105
321.76 K, 3999 kPa, Liquid, Frequency=200 MHz	2.66845
321.78 K, 7249 kPa, Liquid, Frequency=200 MHz	2.70714
321.79 K, 10980 kPa, Liquid, Frequency=200 MHz	2.74469
345.96 K, 227.2 kPa, Gas, Frequency=340 MHz	1.01022
345.97 K, 225.2 kPa, Gas, Frequency=340 MHz	1.01005
346.5 K, 4377 kPa, Liquid, Frequency=200 MHz	2.42553
346.53 K, 6645 kPa, Liquid, Frequency=200 MHz	2.46858
346.59 K, 9481 kPa, Liquid, Frequency=200 MHz	2.51185
365.54 K, 236.9 kPa, Gas, Frequency=340 MHz	1.00981
365.79 K, 239.2 kPa, Gas, Frequency=340 MHz	1.00997
365.83 K, 4248 kPa, Liquid, Frequency=200 MHz	2.19675
365.87 K, 6046 kPa, Liquid, Frequency=200 MHz	2.25994
365.93 K, 9015 kPa, Liquid, Frequency=200 MHz	2.33081
